Test results published in PubChem BioAssay (NCI).
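Five compound concentrations were applied to cells in 96-well plates for 48 hours; endpoints were derived by simple linear interpolation of the resulting dose-response curve. GI50 = concentration required for 50% inhibition of growth. TGI marks complete inhibition of growth.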

Experiments:
Assay in all cases: NCI anticancer screen, dose series, 48 h
ACHN renal = test system: ACHN renal
K-562 leukemia = test system: K-562 leukemia
SF-539 CNS = test system: SF-539 CNS
RPMI-8226 leukemia = test system: RPMI-8226 leukemia
NCI-H522 lung = test system: NCI-H522 lung
UACC-257 melanoma = test system: UACC-257 melanoma
CCRF-CEM leukemia = test system: CCRF-CEM leukemia
SNB-75 CNS = test system: SNB-75 CNS
MDA-MB-435 = test system: MDA-MB-435
SF-268 CNS = test system: SF-268 CNS
UACC-62 melanoma = test system: UACC-62 melanoma
BT-549 breast = test system: BT-549 breast
UO-31 renal = test system: UO-31 renal
MDA-MB-231 breast = test system: MDA-MB-231 breast
RXF 393 renal = test system: RXF 393 renal
NCI/ADR-RES ovarian = test system: NCI/ADR-RES ovarian
CAKI-1 renal = test system: CAKI-1 renal
OVCAR-8 ovarian = test system: OVCAR-8 ovarian
HCT-116 colon = test system: HCT-116 colon
T-47D breast = test system: T-47D breast
PC-3 prostate = test system: PC-3 prostate
OVCAR-4 ovarian = test system: OVCAR-4 ovarian
HL-60(TB) leukemia = test system: HL-60(TB) leukemia
HOP-92 NSCLC = test system: HOP-92 NSCLC
OVCAR-3 ovarian = test system: OVCAR-3 ovarian
SK-MEL-2 melanoma = test system: SK-MEL-2 melanoma
MALME-3M melanoma = test system: MALME-3M melanoma
SF-295 CNS = test system: SF-295 CNS
HCC-2998 colon = test system: HCC-2998 colon
SK-MEL-28 melanoma = test system: SK-MEL-28 melanoma
SK-MEL-5 melanoma = test system: SK-MEL-5 melanoma
U251 CNS = test system: U251 CNS
OVCAR-5 ovarian = test system: OVCAR-5 ovarian
DU-145 prostate = test system: DU-145 prostate
SW-620 colon = test system: SW-620 colon
SR leukemia = test system: SR leukemia
LOX IMVI melanoma = test system: LOX IMVI melanoma
HS 578T breast = test system: HS 578T breast
SK-OV-3 ovarian = test system: SK-OV-3 ovarian
HOP-62 NSCLC = test system: HOP-62 NSCLC
M14 melanoma = test system: M14 melanoma
EKVX NSCLC = test system: EKVX NSCLC
NCI-H226 lung = test system: NCI-H226 lung
HT29 colon = test system: HT29 colon
IGROV1 ovarian = test system: IGROV1 ovarian
COLO 205 colon = test system: COLO 205 colon
A498 renal = test system: A498 renal
HCT-15 colon = test system: HCT-15 colon
MCF7 breast = test system: MCF7 breast
786-0 renal = test system: 786-0 renal
SNB-19 CNS = test system: SNB-19 CNS
KM12 colon = test system: KM12 colon
SN12C renal = test system: SN12C renal
NCI-H460 lung = test system: NCI-H460 lung
NCI-H23 lung = test system: NCI-H23 lung
A549 NSCLC = test system: A549 NSCLC
TK-10 renal = test system: TK-10 renal
MOLT-4 leukemia = test system: MOLT-4 leukemia

SMILES: O=c1[nH]c(Sc2sc3ccc(Cl)cc3c2CBr)nc(=S)[nH]1
- GI50 (ACHN renal): > 100 µM
- TGI (ACHN renal): > 100 µM
- GI50 (K-562 leukemia): > 100 µM
- TGI (K-562 leukemia): > 100 µM
- GI50 (SF-539 CNS): > 100 µM
- TGI (SF-539 CNS): > 100 µM
- GI50 (RPMI-8226 leukemia): > 100 µM
- TGI (RPMI-8226 leukemia): > 100 µM
- GI50 (NCI-H522 lung): > 63.8 µM
- TGI (NCI-H522 lung): > 100 µM
- GI50 (UACC-257 melanoma): > 100 µM
- TGI (UACC-257 melanoma): > 100 µM
- GI50 (CCRF-CEM leukemia): > 100 µM
- TGI (CCRF-CEM leukemia): > 100 µM
- GI50 (SNB-75 CNS): > 100 µM
- TGI (SNB-75 CNS): > 100 µM
- GI50 (MDA-MB-435): > 100 µM
- TGI (MDA-MB-435): > 100 µM
- GI50 (SF-268 CNS): > 100 µM
- TGI (SF-268 CNS): > 100 µM
- GI50 (UACC-62 melanoma): > 100 µM
- TGI (UACC-62 melanoma): > 100 µM
- GI50 (BT-549 breast): > 100 µM
- TGI (BT-549 breast): > 100 µM
- GI50 (UO-31 renal): > 100 µM
- TGI (UO-31 renal): > 100 µM
- GI50 (MDA-MB-231 breast): > 100 µM
- TGI (MDA-MB-231 breast): > 100 µM
- GI50 (RXF 393 renal): > 81.7 µM
- TGI (RXF 393 renal): > 100 µM
- GI50 (NCI/ADR-RES ovarian): > 100 µM
- TGI (NCI/ADR-RES ovarian): > 100 µM
- GI50 (CAKI-1 renal): > 100 µM
- TGI (CAKI-1 renal): > 100 µM
- GI50 (OVCAR-8 ovarian): > 100 µM
- TGI (OVCAR-8 ovarian): > 100 µM
- GI50 (HCT-116 colon): > 100 µM
- TGI (HCT-116 colon): > 100 µM
- GI50 (T-47D breast): > 100 µM
- TGI (T-47D breast): > 100 µM
- GI50 (PC-3 prostate): > 100 µM
- TGI (PC-3 prostate): > 100 µM
- GI50 (OVCAR-4 ovarian): > 100 µM
- TGI (OVCAR-4 ovarian): > 100 µM
- GI50 (HL-60(TB) leukemia): > 100 µM
- TGI (HL-60(TB) leukemia): > 100 µM
- GI50 (HOP-92 NSCLC): > 100 µM
- TGI (HOP-92 NSCLC): > 100 µM
- GI50 (OVCAR-3 ovarian): > 100 µM
- TGI (OVCAR-3 ovarian): > 100 µM
- GI50 (SK-MEL-2 melanoma): > 100 µM
- TGI (SK-MEL-2 melanoma): > 100 µM
- GI50 (MALME-3M melanoma): > 100 µM
- TGI (MALME-3M melanoma): > 100 µM
- GI50 (SF-295 CNS): > 100 µM
- TGI (SF-295 CNS): > 100 µM
- GI50 (HCC-2998 colon): > 100 µM
- TGI (HCC-2998 colon): > 100 µM
- GI50 (SK-MEL-28 melanoma): > 100 µM
- TGI (SK-MEL-28 melanoma): > 100 µM
- GI50 (SK-MEL-5 melanoma): > 100 µM
- TGI (SK-MEL-5 melanoma): > 100 µM
- GI50 (U251 CNS): > 100 µM
- TGI (U251 CNS): > 100 µM
- GI50 (OVCAR-5 ovarian): > 100 µM
- TGI (OVCAR-5 ovarian): > 100 µM
- GI50 (DU-145 prostate): > 100 µM
- TGI (DU-145 prostate): > 100 µM
- GI50 (SW-620 colon): > 100 µM
- TGI (SW-620 colon): > 100 µM
- GI50 (SR leukemia): > 100 µM
- TGI (SR leukemia): > 100 µM
- GI50 (LOX IMVI melanoma): > 100 µM
- TGI (LOX IMVI melanoma): > 100 µM
- GI50 (HS 578T breast): > 100 µM
- TGI (HS 578T breast): > 100 µM
- GI50 (SK-OV-3 ovarian): > 100 µM
- TGI (SK-OV-3 ovarian): > 100 µM
- GI50 (HOP-62 NSCLC): > 100 µM
- TGI (HOP-62 NSCLC): > 100 µM
- GI50 (M14 melanoma): > 100 µM
- TGI (M14 melanoma): > 100 µM
- GI50 (EKVX NSCLC): > 100 µM
- TGI (EKVX NSCLC): > 100 µM
- GI50 (NCI-H226 lung): > 100 µM
- TGI (NCI-H226 lung): > 100 µM
- GI50 (HT29 colon): > 100 µM
- TGI (HT29 colon): > 100 µM
- GI50 (IGROV1 ovarian): > 100 µM
- TGI (IGROV1 ovarian): > 100 µM
- GI50 (COLO 205 colon): > 100 µM
- TGI (COLO 205 colon): > 100 µM
- GI50 (A498 renal): > 100 µM
- TGI (A498 renal): > 100 µM
- GI50 (HCT-15 colon): > 100 µM
- TGI (HCT-15 colon): > 100 µM
- GI50 (MCF7 breast): > 100 µM
- TGI (MCF7 breast): > 100 µM
- GI50 (786-0 renal): > 100 µM
- TGI (786-0 renal): > 100 µM
- GI50 (SNB-19 CNS): > 100 µM
- TGI (SNB-19 CNS): > 100 µM
- GI50 (KM12 colon): > 100 µM
- TGI (KM12 colon): > 100 µM
- GI50 (SN12C renal): > 100 µM
- TGI (SN12C renal): > 100 µM
- GI50 (NCI-H460 lung): > 100 µM
- TGI (NCI-H460 lung): > 100 µM
- GI50 (NCI-H23 lung): > 100 µM
- TGI (NCI-H23 lung): > 100 µM
- GI50 (A549 NSCLC): > 100 µM
- TGI (A549 NSCLC): > 100 µM
- GI50 (TK-10 renal): > 100 µM
- TGI (TK-10 renal): > 100 µM
- GI50 (MOLT-4 leukemia): 99.1 µM
- TGI (MOLT-4 leukemia): > 100 µM
